System: Human patients with short bowel syndrome
Assay: Example 1: liver diagnostic biomarkers (total bilirubin, ALT, AST, ALP) in short bowel syndrome patients, every four weeks for 24 weeks
Format: in vivo
Protocol: Human patients with short bowel syndrome were divided into three groups: a control group (16 total individuals) to receive placebo, an experimental group (35 total individuals) to receive teduglutide at 0.05 mg/kg/day throughout the study, and an experimental group (32 total individuals) to receive teduglutide at 0.1 mg/kg/day throughout the study. Patients were treated by subcutaneous injection of placebo or the appropriate dose of teduglutide. As individuals with short bowel syndrome are likely to experience associated liver and kidney disease, known biomarkers of liver and kidney function were monitored every four weeks, for 24 weeks. The liver biomarkers tested included total bilirubin, ALT and AST and ALP. The kidney biomarkers tested included urea nitrogen, creatinine and GFR. Before administration of placebo or teduglutide, diagnostic biomarker levels were tested to establish a baseline for each individual.
To visualize the effect of GLP-2 on the levels of the diagnostic biomarkers, the average change from baseline was calculated for the placebo and teduglutide treated groups for each visit after a baseline was established. The average change from baseline of each group is depicted in FIGS. […]. The numerical figures for each diaanostic biomarker at each time point are depicted in Table 1.
The efficacy of teduglutide in treating liver dysfunction was further tested by sorting the data into two groups: individuals with abnormal baseline values of liver diagnostic biomarkers; and individuals with normal baseline values of liver diagnostic biomarkers. The mean diagnostic biomarker change from baseline for these two groups is shown for ALT (FIGS. 5 and 6) and AST (FIGS. 7 and 8). […] These changes were significant when compared to baseline levels for the group, and when compared to placebo (see FIGS. 5 and 7).
The raw data for this sorting is reproduced in Table 2 below.

[1] = Week 12, range −5%<= and <=5%, teduglutide 0.05 mg/kg/day
[2] = Week 12, range −5%<= and <=5%, teduglutide 0.1 mg/kg/day
[3] = Week 16, range <−5%, teduglutide 0.05 mg/kg/day
[4] = Week 16, range <−5%, teduglutide 0.1 mg/kg/day
[5] = Week 16, range >5%, teduglutide 0.05 mg/kg/day
[6] = Week 16, range >5%, teduglutide 0.1 mg/kg/day
[7] = Week 16, range −5%<= and <=5%, teduglutide 0.05 mg/kg/day
[8] = Week 16, range −5%<= and <=5%, teduglutide 0.1 mg/kg/day
[9] = Week 20, range <−5%, teduglutide 0.05 mg/kg/day
[10] = Week 20, range <−5%, teduglutide 0.1 mg/kg/day
[11] = Week 20, range >5%, teduglutide 0.05 mg/kg/day
[12] = Week 20, range >5%, teduglutide 0.1 mg/kg/day
[13] = Week 20, range −5%<= and <=5%, teduglutide 0.05 mg/kg/day
[14] = Week 20, range −5%<= and <=5%, teduglutide 0.1 mg/kg/day
[15] = Week 24, range <−5%, teduglutide 0.05 mg/kg/day
[16] = Week 24, range <−5%, teduglutide 0.1 mg/kg/day
[17] = Week 24, range >5%, teduglutide 0.05 mg/kg/day
[18] = Week 24, range >5%, teduglutide 0.1 mg/kg/day
[19] = Week 24, range −5%<= and <=5%, teduglutide 0.05 mg/kg/day
[20] = Week 24, range −5%<= and <=5%, teduglutide 0.1 mg/kg/day
[21] = compared to baseline and to placebo

## CC[C@H](C)[C@H](NC(=O)[C@H](Cc1ccccc1)NC(=O)[C@H](CC(=O)O)NC(=O)[C@H](CCCNC(=N)N)NC(=O)[C@H](C)NC(=O)[C@H](C)NC(=O)[C@H](CC(C)C)NC(=O)[C@H](CC(N)=O)NC(=O)[C@H](CC(=O)O)NC(=O)[C@H](CC(C)C)NC(=O)[C@@H](NC(=O)[C@@H](NC(=O)[C@H](CC(N)=O)NC(=O)[C@H](CCSC)NC(=O)[C@H](CCC(=O)O)NC(=O)[C@H](CC(=O)O)NC(=O)[C@H](CO)NC(=O)[C@H](Cc1ccccc1)NC(=O)[C@H](CO)NC(=O)CNC(=O)[C@H](CC(=O)O)NC(=O)CNC(=O)[C@@H](N)Cc1c[nH]cn1)[C@@H](C)O)[C@@H](C)CC)C(=O)N[C@@H](CC(N)=O)C(=O)N[C@@H](Cc1c[nH]c2ccccc12)C(=O)N[C@@H](CC(C)C)C(=O)N[C@H](C(=O)N[C@@H](CCC(N)=O)C(=O)N[C@H](C(=O)N[C@@H](CCCCN)C(=O)N[C@H](C(=O)N[C@H](C(=O)N[C@@H](CC(=O)O)C(=O)O)[C@@H](C)O)[C@@H](C)CC)[C@@H](C)O)[C@@H](C)CC [teduglutide]
[1]
  ALT (SGPT) change from baseline: patients in range, n(%): 4(11.4%)
  AST (SGOT) change from baseline: patients in range, n(%): 3(8.6%)
  TOTAL BILIRUBIN change from baseline: patients in range, n(%): 4(11.4%)
[2]
  ALKALINE PHOSPHATASE change from baseline: patients in range, n(%): 1(3.1%)
  ALT (SGPT) change from baseline: patients in range, n(%): 2(6.3%)
  AST (SGOT) change from baseline: patients in range, n(%): 3(9.4%)
  TOTAL BILIRUBIN change from baseline: patients in range, n(%): 6(18.8%)
[3]
  ALKALINE PHOSPHATASE change from baseline: patients in range, n(%): 20(57.1%)
  AST (SGOT) change from baseline: patients in range, n(%): 14(40.0%)
  TOTAL BILIRUBIN change from baseline: patients in range, n(%): 14(40.0%)
[4]
  ALKALINE PHOSPHATASE change from baseline: patients in range, n(%): 21(65.6%)
  AST (SGOT) change from baseline: patients in range, n(%): 18(56.3%)
  TOTAL BILIRUBIN change from baseline: patients in range, n(%): 14(43.8%)
[5]
  ALKALINE PHOSPHATASE change from baseline: patients in range, n(%): 6(17.1%)
  ALT (SGPT) change from baseline: patients in range, n(%): 12(34.3%)
  AST (SGOT) change from baseline: patients in range, n(%): 8(22.9%)
  TOTAL BILIRUBIN change from baseline: patients in range, n(%): 9(25.7%)
[6]
  ALKALINE PHOSPHATASE change from baseline: patients in range, n(%): 7(21.9%)
  ALT (SGPT) change from baseline: patients in range, n(%): 9(28.1%)
  AST (SGOT) change from baseline: patients in range, n(%): 8(25.0%)
  TOTAL BILIRUBIN change from baseline: patients in range, n(%): 6(18.8%)
Week 16, range >−5%, teduglutide 0.05 mg/kg/day
  ALT (SGPT) change from baseline: patients in range, n(%): 16(45.7%)
Week 16, range >−5%, teduglutide 0.1 mg/kg/day
  ALT (SGPT) change from baseline: patients in range, n(%): 19(59.4%)
[7]
  ALKALINE PHOSPHATASE change from baseline: patients in range, n(%): 2(5.7%)
  ALT (SGPT) change from baseline: patients in range, n(%): 0(0.0%)
  AST (SGOT) change from baseline: patients in range, n(%): 6(17.1%)
  TOTAL BILIRUBIN change from baseline: patients in range, n(%): 3(8.6%)
[8]
  ALKALINE PHOSPHATASE change from baseline: patients in range, n(%): 2(6.3%)
  ALT (SGPT) change from baseline: patients in range, n(%): 2(6.3%)
  AST (SGOT) change from baseline: patients in range, n(%): 3(9.4%)
  TOTAL BILIRUBIN change from baseline: patients in range, n(%): 8(25.0%)
[9]
  ALKALINE PHOSPHATASE change from baseline: patients in range, n(%): 22(62.9%)
  ALT (SGPT) change from baseline: patients in range, n(%): 17(48.6%)
  AST (SGOT) change from baseline: patients in range, n(%): 17(48.6%)
  TOTAL BILIRUBIN change from baseline: patients in range, n(%): 12(34.3%)
[10]
  ALKALINE PHOSPHATASE change from baseline: patients in range, n(%): 19(59.4%)
  ALT (SGPT) change from baseline: patients in range, n(%): 19(59.4%)
  AST (SGOT) change from baseline: patients in range, n(%): 16(50.0%)
  TOTAL BILIRUBIN change from baseline: patients in range, n(%): 14(43.8%)
[11]
  ALKALINE PHOSPHATASE change from baseline: patients in range, n(%): 4(11.4%)
  ALT (SGPT) change from baseline: patients in range, n(%): 9(25.7%)
  AST (SGOT) change from baseline: patients in range, n(%): 6(17.1%)
  TOTAL BILIRUBIN change from baseline: patients in range, n(%): 7(20.0%)
[12]
  ALKALINE PHOSPHATASE change from baseline: patients in range, n(%): 9(28.1%)
  ALT (SGPT) change from baseline: patients in range, n(%): 8(25.0%)
  AST (SGOT) change from baseline: patients in range, n(%): 9(28.1%)
  TOTAL BILIRUBIN change from baseline: patients in range, n(%): 9(28.1%)
[13]
  ALKALINE PHOSPHATASE change from baseline: patients in range, n(%): 1(2.9%)
  ALT (SGPT) change from baseline: patients in range, n(%): 1(2.9%)
  AST (SGOT) change from baseline: patients in range, n(%): 4(11.4%)
  TOTAL BILIRUBIN change from baseline: patients in range, n(%): 6(17.1%)
[14]
  ALKALINE PHOSPHATASE change from baseline: patients in range, n(%): 1(3.1%)
  ALT (SGPT) change from baseline: patients in range, n(%): 2(6.3%)
  AST (SGOT) change from baseline: patients in range, n(%): 3(9.4%)
  TOTAL BILIRUBIN change from baseline: patients in range, n(%): 6(18.8%)
[15]
  ALKALINE PHOSPHATASE change from baseline: patients in range, n(%): 21(60.0%)
  ALT (SGPT) change from baseline: patients in range, n(%): 18(51.4%)
  AST (SGOT) change from baseline: patients in range, n(%): 17(48.6%)
  TOTAL BILIRUBIN change from baseline: patients in range, n(%): 8(22.9%)
[16]
  ALKALINE PHOSPHATASE change from baseline: patients in range, n(%): 20(62.5%)
  ALT (SGPT) change from baseline: patients in range, n(%): 18(56.3%)
  AST (SGOT) change from baseline: patients in range, n(%): 15(46.9%)
  TOTAL BILIRUBIN change from baseline: patients in range, n(%): 11(34.4%)
[17]
  ALKALINE PHOSPHATASE change from baseline: patients in range, n(%): 4(11.4%)
  ALT (SGPT) change from baseline: patients in range, n(%): 4(11.4%)
  AST (SGOT) change from baseline: patients in range, n(%): 6(17.1%)
  TOTAL BILIRUBIN change from baseline: patients in range, n(%): 10(28.6%)
[18]
  ALKALINE PHOSPHATASE change from baseline: patients in range, n(%): 5(15.6%)
  ALT (SGPT) change from baseline: patients in range, n(%): 11(34.4%)
  AST (SGOT) change from baseline: patients in range, n(%): 11(34.4%)
  TOTAL BILIRUBIN change from baseline: patients in range, n(%): 10(31.3%)
[19]
  ALKALINE PHOSPHATASE change from baseline: patients in range, n(%): 0(0.0%)
  ALT (SGPT) change from baseline: patients in range, n(%): 4(11.4%)
  AST (SGOT) change from baseline: patients in range, n(%): 3(8.6%)
  TOTAL BILIRUBIN change from baseline: patients in range, n(%): 4(11.4%)
[20]
  ALKALINE PHOSPHATASE change from baseline: patients in range, n(%): 4(12.5%)
  ALT (SGPT) change from baseline: patients in range, n(%): 0(0.0%)
  AST (SGOT) change from baseline: patients in range, n(%): 3(9.4%)
  TOTAL BILIRUBIN change from baseline: patients in range, n(%): 6(18.8%)
Beginning at 4 weeks after commencement of treatment
  fraction of individuals experiencing a decrease of more than 5% in ALT versus placebo: greater fraction of individuals experiencing a decrease of more than 5%
[21]
  ALT change from baseline in patients with abnormal baseline values (FIG. 5): statistically significant improvements
  AST change from baseline in patients with abnormal baseline values (FIG. 7): statistically significant improvements
Groups receiving teduglutide
  average level of ALP relative to baseline (FIG. 4): decreased relative to baseline for the entire period of the study
  percent of individuals experiencing an increase of greater than 5% in ALP or ALT versus placebo: effective prophylactic against increases in biomarkers associated with liver dysfunction
Groups receiving teduglutide, maintained for the entire duration of the study
  average decrease of the level of ALT from baseline (FIG. 1): about 10 U/L
Within 4 weeks of the beginning of treatment, groups receiving teduglutide
  individuals experiencing a decrease in ALP greater than 5% from baseline: roughly 60%

From US20130072430A1, “METHODS FOR TREATMENT OR PROPHYLAXIS OF KIDNEY OR LIVER DYSFUNCTION” (NPS PHARMACEUTICALS, INC., priority 2010, published 2013)
